Source: patent US20260085076A1, “CRYSTAL FORM OF AROMATIC HETEROCYCLIC COMPOUND, COMPOSITION THEREOF, PRODUCTION METHOD THEREOF AND USES THEREOF” (Hangzhou Yuhong Pharmaceutical Technology Co., Ltd., priority 2023, published 2026)

Assays:
JAK3 kinase = target: T1, JAK3 kinase (Homo sapiens, UniProt P52333); assay: Mobility shift assay, JAK3 kinase inhibitory activity; type: biochemical; details: Caliper EZ Reader
T1 sequence (P52333 1-1124): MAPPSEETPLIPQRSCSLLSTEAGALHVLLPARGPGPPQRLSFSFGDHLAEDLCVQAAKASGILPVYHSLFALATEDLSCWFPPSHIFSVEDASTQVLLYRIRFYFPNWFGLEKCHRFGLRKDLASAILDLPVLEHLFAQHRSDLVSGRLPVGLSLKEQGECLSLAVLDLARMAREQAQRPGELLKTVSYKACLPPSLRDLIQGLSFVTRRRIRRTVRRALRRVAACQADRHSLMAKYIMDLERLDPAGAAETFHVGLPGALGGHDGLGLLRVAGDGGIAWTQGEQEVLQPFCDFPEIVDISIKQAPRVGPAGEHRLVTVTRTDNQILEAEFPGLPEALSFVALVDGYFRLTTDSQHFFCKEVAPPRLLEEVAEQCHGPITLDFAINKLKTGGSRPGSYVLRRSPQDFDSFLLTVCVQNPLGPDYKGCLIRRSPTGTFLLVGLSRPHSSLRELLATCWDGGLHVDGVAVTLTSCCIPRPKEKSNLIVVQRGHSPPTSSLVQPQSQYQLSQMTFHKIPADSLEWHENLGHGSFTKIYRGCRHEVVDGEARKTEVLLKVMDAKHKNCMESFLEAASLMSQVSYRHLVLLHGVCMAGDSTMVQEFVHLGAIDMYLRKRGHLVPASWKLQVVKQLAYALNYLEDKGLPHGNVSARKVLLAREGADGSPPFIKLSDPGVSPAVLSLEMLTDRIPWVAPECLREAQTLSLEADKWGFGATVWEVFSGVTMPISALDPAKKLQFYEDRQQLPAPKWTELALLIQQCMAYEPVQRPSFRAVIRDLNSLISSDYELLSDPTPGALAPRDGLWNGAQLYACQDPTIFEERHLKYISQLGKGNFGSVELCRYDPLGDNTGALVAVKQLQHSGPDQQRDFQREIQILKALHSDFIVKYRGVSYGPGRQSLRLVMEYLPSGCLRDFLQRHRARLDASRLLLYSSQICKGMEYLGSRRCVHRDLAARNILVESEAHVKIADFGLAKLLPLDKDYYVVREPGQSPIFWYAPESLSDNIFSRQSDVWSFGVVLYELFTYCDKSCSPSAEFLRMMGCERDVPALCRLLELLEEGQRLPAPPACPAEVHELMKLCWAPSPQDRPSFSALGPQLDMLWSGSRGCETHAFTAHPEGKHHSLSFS
Protocol: Mobility shift assay was used to detect the in vitro inhibitory activity of the test compounds (listed below) on JAK3 kinase activity. Cerdulatinib (supplier: selleckchem; Article number: S7634) was used as a positive control compound.
Compound was dissolved in 100% DMSO to formulate a 10 mM stock solution and stored in a −20° C. refrigerator away from light.
(1) 1×Kinase buffer was prepared.
After being gradient dilution to a 100-fold final concentration, 250 nL of solutions were transferred to a 384-well plate using Echo550. 250 nL of 100% DMSO were added to each of the negative control wells and the positive control wells, respectively.
(3) 2.5 times a final concentration of kinase solution was prepared with 1×Kinase buffer. […]
(10) The conversion rate was read by Caliper EZ Reader.
Wherein: Conversion %_sample is the conversion rate reading of the sample; Conversion %_min: the mean value of the negative control wells, representing the conversion rate reading of the wells without enzyme activity; Conversion %_max: the mean value of the positive control wells, representing the conversion rate reading of the wells without compound inhibition; % Inhibition represents the percentage inhibition rate. […]

[1] = tested on: p-STAT5 under IL-15 stimulation in PBMC (JAK-STAT pathway); assay: p-STAT5 ELISA in IL-15 stimulated hPBMC cells; type: cell-based, human; details: Homo sapiens, PBMC, 45 min compound, 30 min IL-15, ELISA
Protocol: Based on the mechanism of JAK-STAT pathway, the effect of the compounds on the JAK-STAT pathway were evaluated by using cytokine IL-15 to stimulate hPBMC cells, and using the downstream STAT5 phosphorylation level as the detection index.
1. PBMC cell counting plate: 90 μL PBMC was seeded in a 96-well plate (PBMC cell density 80,000/well).
2. Treatment with test compounds: After cells being seeded, drug treatment was carried out immediately. The drugs to be tested at 5 μL/well (final concentrations 1, 0.5, 0.1, 0.05, 0.01, and 0.005 μM) were incubated at 37° C. for 45 min.
3. Cytokine IL-15 stimulation: The cells were stimulated by 5 μL IL-15, and incubated at 37° C. for 30 min.
4. Protein sample collection: The cells were collected in a centrifuge tube and centrifuged for 5 minutes. The supernatant was discarded and cells were lysed with 1× Cell Extraction Buffer PTR.
5. p-STAT5 detection: Perform detection according to the requirements of the ELISA kit.
Experimental results: IC50 values of compounds on p-STAT5 under IL-15 stimulation in PBMC

SRBC mouse model = assay: SRBC-induced delayed-type hypersensitivity (DTH) in mice; type: in vivo, Balb/c mice; details: 100 mg/kg gavage once a day, day 0 to day 6, FIG. 76
Protocol: Drug formulation: The compound was added to 0.5% CMC-Na solution to formulate a drug suspension (dosage is 10 mg/mL).
Induction and administration of delayed-type hypersensitivity (DTH): 30 male Balb/c mice were weighed and randomly divided into 6 groups according to body weight, with 5 mice in each group. The experimental period lasted for 7 days. On day 0, mice were sensitized by subcutaneous injection of sheep red blood cells (SRBC). The mice were performed gavage administration at 100 mg/kg (once a day) from day 0 to day 6. On day 6, the mice were injected SRBC into the right hind foot pad for challenge. Measurements were taken on the 7th day of the experiment, and the experiment was concluded.
Pharmacodynamic detection indicators of disease models: the detection and observation indicators are the redness and swelling degree and thickness of the paw pads of SRBC-induced mice. The thickness of the right paw was measured on day 6 before the SRBC injection challenge as the baseline. The thickness of the right paw was measured again at the end of the experiment, the difference in paw thickness before and after the second injection was calculated.
Statistical analysis: The experimental data were expressed as mean±standard deviation (Mean±SD). All data were statistically analyzed using T-test, with P<0.05 considered statistically significant.

[2] = tested on: collagen-induced arthritis model in mice; assay: Collagen-induced arthritis model in mice (mCIA); type: in vivo, DBA/1J mice; details: 50 mg/kg once a day, FIG. 77
Protocol: 1. Construction of collagen-induced arthritis model in mice (mCIA) Experimental purpose: To test the immunosuppressive activity of YZ001052 in the mCIA model. PF-06651600 was used as a positive control compound.
Complete and incomplete Freund's adjuvants with chicken type II collagen solution were mixed in equal proportions to form emulsions. Except for the blank control group, a mixture of complete Freund's adjuvant and chicken type II collagen solution was injected subcutaneously into the base of the tail and thigh of mice on Day 0. Each mouse was injected subcutaneously with 100 μL at the base of the tail, and injected 50 μL subcutaneously at the base of both thighs (primary immunization). On day 21, mice were injected subcutaneously with 200 μL of a mixture of incomplete Freund's adjuvant and chicken type II collagen as a booster injection (second immunization). Arthritis was considered to occur if the clinical score of at least one limb was >2 points. Paw thickness measurement: Using a vernier caliper to measure the thickness of the left and right hind feet of the mouse and record it, which is the degree of paw swelling. The detection frequency was once every 3 days.

[3] = tested on: DSS-induced inflammatory bowel disease model in mice; assay: DSS-induced mouse inflammatory bowel disease model; type: in vivo, C57BL/6 mice; details: 50 mg/kg once a day, 5% DSS, day 8, compared with model group, FIG. 78
Protocol: Experimental purpose: To test the immunosuppressive activity of YZ001052 in DSS-induced inflammatory bowel disease model in mice. PF-06651600 was used as a positive control compound.
50 g of DSS was added 1000 mL of sterile water to formulate a 5% DSS solution, and the solution was filtered with a 0.22 μm filter membrane. Starting from day 0, the blank group was gave drinking water without DSS, and the other experimental groups were gave drinking water containing 5% DSS. All mice were sacrificed on day 8. After the experiment, the colon was collected, photographed and measured for length. The data were analyzed according to Statistics.

[4] = tested on: mouse model of acute radiation-induced lung injury; assay: Acute radiation-induced lung injury in mice; type: in vivo, C57BL/6 mice; details: 30 mg/kg q.d., 22.5 Gy whole lung, three weeks after modeling
Protocol: Eighteen female C57BL/6 mice were divided randomly into three groups: blank control group, simple irradiation group, and irradiation+ drug YZ001052 (30 mg/kg q. d) intervention group, with 6 mice in each group.
The mice were anesthetized with 1% sodium pentobarbital by intraperitoneal injection, and irradiated the whole lung with 22.5 Gy in a single shot using 220 KV X-rays through the Small Animal Precision Radiotherapy Research Platform (SARRP). After irradiation, the mice were housed in a normal manner.
Three weeks after modeling, the mice were anesthetized and dissected. The lung tissues were exposed and the left lung was ligated, an open tracheotomy was performed, the lung was lavaged with cold PBS, and the alveolar lavage fluid (BALF) was collected and centrifuged at 4° C.
The supernatant was collected to detect the content of inflammatory factor TNF-α by ELISA.
Resuspend the bronchoalveolar lavage fluid cell pellet in 200 μL PBS for white blood cell (WBC) counting.

`C=CC(=O)N1CCc2c(c(-c3ccnc4[nH]ccc34)nn2C)C1` [YZ001052, 1-(1-methyl-3-(1H-pyrrolo[2,3-b]pyridin-4-yl)-1,4,6,7-tetrahydro-5H-pyrazolo[4,3-c]pyridin-5-yl)prop-2-en-1-one] was tested, and the IC50 (JAK3 kinase) was 0.25 nM, the IC50 [1] was 10.7 nM and the “immunosuppressive effect on SRBC-induced delayed-type hypersensitivity (right paw thickness)” value (SRBC mouse model) was “significant immunosuppressive effects”. The paw swelling ([2]; CIA mice) was “improved to varying degrees”, the arthritis score ([2]; compared with the model group) was “significantly decreased” and the colorectal length [3] was “significantly increased”. The “TNF-α level in bronchoalveolar lavage fluid” value ([4]; FIG. 79) was “good inhibitory effect” and the “number of inflammatory cell infiltration in the lungs (white blood cells in BALF)” value ([4]; FIG. 80) was “significantly reduce”.
